According to patent publication US20220089568A1 (Janssen Biotech, Inc., priority 2019, published 2022):

Columns and labels:
MOLM-13 cells = experiment: MOLM-13 Cellular Assay; assay type: cell-based; conditions: Homo sapiens, 72 hours exposure, cell viability by CellTiter-Glo
Procedure: The day prior to assay set-up, cells were pelleted, resuspended in fresh media, counted, and cells were plated at 0.4×10^6 cell/mL in a T150 flask. […] Cells were exposed to different concentrations of test compounds at 37° C., 5% CO2 for 72 hours immediately after seeding.

human DHODH = biological target: T1, human DHODH (Homo sapiens, UniProt Q02127); experiment: DHODH Enzymatic Assay; assay type: biochemical; conditions: purified human DHODH; DCIP absorbance, end-point mode
T1 construct: purchased Proteros PR-0044
T1 sequence (Q02127 whole entry): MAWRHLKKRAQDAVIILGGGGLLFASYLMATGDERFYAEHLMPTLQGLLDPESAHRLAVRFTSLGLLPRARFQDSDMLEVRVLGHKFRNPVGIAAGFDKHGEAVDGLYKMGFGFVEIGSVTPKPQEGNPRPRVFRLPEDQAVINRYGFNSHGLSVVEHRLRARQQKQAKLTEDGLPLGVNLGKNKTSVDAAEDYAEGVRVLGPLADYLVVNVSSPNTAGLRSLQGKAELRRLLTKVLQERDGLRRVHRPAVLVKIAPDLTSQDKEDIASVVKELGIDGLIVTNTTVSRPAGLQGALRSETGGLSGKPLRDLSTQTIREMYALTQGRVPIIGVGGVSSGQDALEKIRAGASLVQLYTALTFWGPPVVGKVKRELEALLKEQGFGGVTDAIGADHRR
How it was run: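 Purified human DHODH activity read as absorbance of DCIP, the terminal electron acceptor, in […] pH 7.5, 150 mM NaCl, 0.5 mM EDTA, 0.1% Triton X-100. Reaction started with a substrate mix of 20 mM DHO, 5 mM CoQ6 and 1 mM DCIP in assay buffer.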

Row | Compound | EC50 (MOLM-13 cells) [nM] | EC50 (human DHODH) [nM]
1 | CCn1c(CO)nn(-c2nc(O[C@@H](C)C(F)(F)F)c(C(=O)Nc3ccc(C)nc3Cl)cc2F)c1=O [Example 77, N-(2-Chloro-6-methyl-3-pyridyl)-6-[4-ethyl-3-(hydroxymethyl)-5-oxo-1,2,4-triazol-1-yl]-5-fluoro-2-[(1S)-2,2,2-trifluoro-1-methyl-ethoxy]pyridine-3-carboxamide] | 13.2 | 14
2 | CCn1c(CO)nn(-c2nc(O[C@@H](C)C(F)(F)F)c(C(=O)Nc3cc(F)cnc3Cl)cc2F)c1=O [Example 78, N-(2-Chloro-5-fluoro-3-pyridyl)-6-[4-ethyl-3-(hydroxymethyl)-5-oxo-1,2,4-triazol-1-yl]-5-fluoro-2-[(1S)-2,2,2-trifluoro-1-methyl-ethoxy]pyridine-3-carboxamide] | 25 | 12.3
3 | CCn1c(CO)nn(-c2nc(O[C@@H](C)C(F)(F)F)c(C(=O)Nc3c(Cl)ccnc3C)cc2F)c1=O [Example 79, N-(4-Chloro-2-methyl-3-pyridyl)-6-[4-ethyl-3-(hydroxymethyl)-5-oxo-1,2,4-triazol-1-yl]-5-fluoro-2-[(1S)-2,2,2-trifluoro-1-methyl-ethoxy]pyridine-3-carboxamide] | 5.3 | 1.9
4 | CCn1c(CO)nn(-c2nc(O[C@@H](C)C(F)(F)F)c(C(=O)Nc3cn(C)nc3Cl)cc2F)c1=O [Example 80, N-(3-Chloro-1-methyl-pyrazol-4-yl)-6-[4-ethyl-3-(hydroxymethyl)-5-oxo-1,2,4-triazol-1-yl]-5-fluoro-2-[(1S)-2,2,2-trifluoro-1-methyl-ethoxy]pyridine-3-carboxamide] | 12.9 | 7.2
5 | CCn1c(CO)nn(-c2nc(O[C@@H](C)C(F)(F)F)c(C(=O)Nc3cc(C(F)F)ncc3F)cc2F)c1=O [Example 81, N-[2-(Difluoromethyl)-5-fluoro-4-pyridyl]-6-[4-ethyl-3-(hydroxymethyl)-5-oxo-1,2,4-triazol-1-yl]-5-fluoro-2-[(1S)-2,2,2-trifluoro-1-methyl-ethoxy]pyridine-3-carboxamide] | > 100 | 568
6 | CCn1c(CO)nn(-c2nc(O[C@@H](C)C(F)(F)F)c(C(=O)Nc3nc(OC)ncc3F)cc2F)c1=O [Example 82, 6-[4-Ethyl-3-(hydroxymethyl)-5-oxo-1,2,4-triazol-1-yl]-5-fluoro-N-(5-fluoro-2-methoxy-pyrimidin-4-yl)-2-[(1S)-2,2,2-trifluoro-1-methyl-ethoxy]pyridine-3-carboxamide] | > 100 | 729
7 | CCn1c(CO)nn(-c2nc(O[C@@H](C)C(F)(F)F)c(C(=O)Nc3c(Cl)ccc(C)c3C)cc2F)c1=O [Example 83, N-(6-Chloro-2,3-dimethyl-phenyl)-6-[4-ethyl-3-(hydroxymethyl)-5-oxo-1,2,4-triazol-1-yl]-5-fluoro-2-[(1S)-2,2,2-trifluoro-1-methyl-ethoxy]pyridine-3-carboxamide] | 0.73 | 0.69
8 | CCCn1c(CO)nn(-c2nc(O[C@@H](C)C(F)(F)F)c(C(=O)Nc3c(C)ccnc3Cl)cc2F)c1=O [Example 84, N-(2-Chloro-4-methyl-3-pyridyl)-5-fluoro-6-[3-(hydroxymethyl)-5-oxo-4-propyl-1,2,4-triazol-1-yl]-2-[(1S)-2,2,2-trifluoro-1-methyl-ethoxy]pyridine-3-carboxamide] | 4.8 | 5.1
9 | CCn1c(CO)nn(-c2nc(O[C@@H](C)C(F)(F)F)c(C(=O)Nc3c(C)cnc(OC)c3C)cc2F)c1=O [Example 85, 6-[4-Ethyl-3-(hydroxymethyl)-5-oxo-1,2,4-triazol-1-yl]-5-fluoro-N-(2-methoxy-3,5-dimethyl-4-pyridyl)-2-[(1S)-2,2,2-trifluoro-1-methyl-ethoxy]pyridine-3-carboxamide] | 1.1 | 0.91
10 | Cc1ccnc(Cl)c1NC(=O)c1cc(F)c(-n2nc(CF)n(C(C)C)c2=O)nc1O[C@@H](C)C(F)(F)F [Example 86, (S)-2-(5-(((2-Chloro-4-methylpyridin-3-yl)-l2-azaneyl)carbonyl)-3-fluoro-6-((1,1,1-trifluoropropan-2-yl)oxy)pyridin-2-yl)-5-(fluoromethyl)-4-isopropyl-2,4-dihydro-3H-1,2,4-triazol-3-one] | 1.8 | 3.9
11 | CCn1c(CF)nn(-c2nc(O[C@@H](C)C(F)(F)F)c(C(=O)Nc3c(C)ccnc3Cl)cc2F)c1=O [Example 87, N-(2-Chloro-4-methyl-3-pyridyl)-6-[4-ethyl-3-(fluoromethyl)-5-oxo-1,2,4-triazol-1-yl]-5-fluoro-2-[(1S)-2,2,2-trifluoro-1-methyl-ethoxy]pyridine-3-carboxamide] | 1.14 | 0.448
12 | CCn1c(CO)nn(-c2nc(OC(C)C)c(C(=O)Nc3c(C)cnc(OC)c3Cl)cc2F)c1=O [Example 88, N-(3-Chloro-2-methoxy-5-methyl-4-pyridyl)-6-[4-ethyl-3-(hydroxymethyl)-5-oxo-1,2,4-triazol-1-yl]-5-fluoro-2-isopropoxy-pyridine-3-carboxamide] | 2.34 | 1.16
13 | Cc1ccnc(Cl)c1NC(=O)c1cc(F)c(-n2nc(CO)n(C(C)C)c2=O)nc1O[C@@H](C)C(F)(F)F [Example 89, N-(2-Chloro-4-methyl-3-pyridyl)-5-fluoro-6-[3-(hydroxymethyl)-4-isopropyl-5-oxo-1,2,4-triazol-1-yl]-2-[(1S)-2,2,2-trifluoro-1-methyl-ethoxy]pyridine-3-carboxamide] | 4.09 | 10.7
14 | Cc1ccnc(Cl)c1NC(=O)c1cc(F)c(-n2nc(CO)n(CC(F)F)c2=O)nc1O[C@@H](C)C(F)(F)F [Example 90, N-(2-Chloro-4-methyl-3-pyridyl)-6-[4-(2,2-difluoroethyl)-3-(hydroxymethyl)-5-oxo-1,2,4-triazol-1-yl]-5-fluoro-2-[(1S)-2,2,2-trifluoro-1-methyl-ethoxy]pyridine-3-carboxamide] | 14.9 | 23.1
15 | CCCn1c(CO)nn(-c2nc(O[C@@H](C)C(F)(F)F)c(C(=O)Nc3c(C)n[nH]c3Cl)cc2F)c1=O [Example 91, N-(5-Chloro-3-methyl-1H-pyrazol-4-yl)-5-fluoro-6-[3-(hydroxymethyl)-5-oxo-4-propyl-1,2,4-triazol-1-yl]-2-[(1S)-2,2,2-trifluoro-1-methyl-ethoxy]pyridine-3-carboxamide] | 2.04 | 3.86
16 | CCCn1c(CF)nn(-c2nc(O[C@@H](C)C(F)(F)F)c(C(=O)Nc3c(C)ccnc3Cl)cc2F)c1=O [Example 92, N-(2-Chloro-4-methyl-3-pyridyl)-5-fluoro-6-[3-(fluoromethyl)-5-oxo-4-propyl-1,2,4-triazol-1-yl]-2-[(1S)-2,2,2-trifluoro-1-methyl-ethoxy]pyridine-3-carboxamide] | 0.435 | 0.639
17 | CCn1c(CO)nn(-c2nc(O[C@@H](C)C(F)(F)F)c(C(=O)Nc3c(OC)ccnc3OC)cc2F)c1=O [Example 93, N-(2,4-Dimethoxy-3-pyridyl)-6-[4-ethyl-3-(hydroxymethyl)-5-oxo-1,2,4-triazol-1-yl]-5-fluoro-2-[(1S)-2,2,2-trifluoro-1-methyl-ethoxy]pyridine-3-carboxamide] | 4.14 | 13.8
18 | CCn1c(CO)nn(-c2nc(O[C@@H](C)C(F)(F)F)c(C(=O)Nc3c(OC)ncnc3OC)cc2F)c1=O [Example 94, N-(4,6-Dimethoxypyrimidin-5-yl)-6-[4-ethyl-3-(hydroxymethyl)-5-oxo-1,2,4-triazol-1-yl]-5-fluoro-2-[(1S)-2,2,2-trifluoro-1-methyl-ethoxy]pyridine-3-carboxamide] | 48 | > 33
19 | CCn1c(CO)nn(-c2nc(O[C@@H](C)C(F)(F)F)c(C(=O)Nc3c[nH]nc3C(F)(F)F)cc2F)c1=O [Example 95, 6-[4-Ethyl-3-(hydroxymethyl)-5-oxo-1,2,4-triazol-1-yl]-5-fluoro-2-[(1S)-2,2,2-trifluoro-1-methyl-ethoxy]-N-[3-(trifluoromethyl)-1H-pyrazol-4-yl]pyridine-3-carboxamide] | 1.23 | 2.09
20 | CCn1c(CF)nn(-c2nc(O[C@@H](C)C(F)(F)F)c(C(=O)Nc3c(C)n[nH]c3Cl)cc2F)c1=O [Example 96, N-(5-Chloro-3-methyl-1H-pyrazol-4-yl)-6-[4-ethyl-3-(fluoromethyl)-5-oxo-1,2,4-triazol-1-yl]-5-fluoro-2-[(1S)-2,2,2-trifluoro-1-methyl-ethoxy]pyridine-3-carboxamide] | 0.32 | 0.382
21 | CCn1c(CF)nn(-c2nc(OC(C)C)c(C(=O)Nc3c(C)ccnc3Cl)cc2F)c1=O [Example 97, N-(2-Chloro-4-methyl-3-pyridyl)-6-[4-ethyl-3-(fluoromethyl)-5-oxo-1,2,4-triazol-1-yl]-5-fluoro-2-isopropoxy-pyridine-3-carboxamide] | 1.06 | 1.15
22 | CCn1c(CO)nn(-c2nc(O[C@@H](C)C(F)(F)F)c(C(=O)Nc3cc(OC)ncc3Cl)cc2F)c1=O [Example 98, N-(5-Chloro-2-methoxy-4-pyridyl)-6-[4-ethyl-3-(hydroxymethyl)-5-oxo-1,2,4-triazol-1-yl]-5-fluoro-2-[(1S)-2,2,2-trifluoro-1-methyl-ethoxy]pyridine-3-carboxamide] | 41.6 | 91.4
23 | CCCn1c(CF)nn(-c2nc(O[C@@H](C)C(F)(F)F)c(C(=O)Nc3c(C)n[nH]c3Cl)cc2F)c1=O [Example 99, N-(5-Chloro-3-methyl-1H-pyrazol-4-yl)-5-fluoro-6-[3-(fluoromethyl)-5-oxo-4-propyl-1,2,4-triazol-1-yl]-2-[(1S)-2,2,2-trifluoro-1-methyl-ethoxy]pyridine-3-carboxamide] | 0.38 | 0.975
